Values of other authors in patent US8226992B1, “Composition and method of preventing and treating redox diseases” (priority 2009, dated 2012).

Assays:
[1] = molecular target: T1, Farnesoid X Receptors (FXR) (Mus musculus, UniProt Q60641); conditions: mouse model
T1 sequence (Q60641 1-488): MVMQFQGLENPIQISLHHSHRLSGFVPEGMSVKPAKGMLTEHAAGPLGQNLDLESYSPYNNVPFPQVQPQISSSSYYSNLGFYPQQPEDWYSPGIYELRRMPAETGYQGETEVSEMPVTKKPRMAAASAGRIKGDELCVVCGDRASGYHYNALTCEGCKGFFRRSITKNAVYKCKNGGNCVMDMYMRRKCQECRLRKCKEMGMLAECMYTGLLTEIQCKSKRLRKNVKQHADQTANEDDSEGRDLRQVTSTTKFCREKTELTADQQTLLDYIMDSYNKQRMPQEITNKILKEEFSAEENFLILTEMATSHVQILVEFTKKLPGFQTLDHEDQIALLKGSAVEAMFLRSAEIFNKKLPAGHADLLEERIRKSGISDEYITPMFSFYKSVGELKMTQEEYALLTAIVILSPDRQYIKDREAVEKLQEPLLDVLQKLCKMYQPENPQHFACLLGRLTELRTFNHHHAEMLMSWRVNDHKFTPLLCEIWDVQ

[2] = at high levels

Row | SMILES | activity at Farnesoid X Receptors (FXR) [1] | Lp(a) levels reduced [2]
1 | C[C@@]12CCc3occc3[C@H]1CC[C@@]13C[C@@H](CC[C@H]12)[C@@](O)(CO)C3 [Cafestol] | agonist ligand | 
2 | O=C(O)c1cccnc1 [Naicin] |  | up to 15%
